# Measurements published in patent EP1086692A2, “Estrogen agonists and antagonists for multiple indications” (priority 1999, dated 2001).
# Values joined by “and” are separate entries in the source; they are usually repeats but may differ in a detail not shown here. Equal entries are not always repeated.
# What was measured:
# human plasma proteins [1] = assay: Binding of propranolol to human plasma proteins in the absence and presence of droloxifene or lasofoxifene (equilibrium dialysis, HPLC-MS); conditions: result in words; droloxifene 200 ng/ml, lasofoxifene 50 ng/ml
# Description: (§1) The effect of droloxifene or lasofoxifene on plasma protein binding was assessed at […] concentrations of 2 and 10 µg/ml and propranolol concentrations of 50 and 500 ng/ml. The concentrations of droloxifene and lasofoxifene used were 200 and 50 ng/ml respectively.
# [2] = Binding of droloxifene and lasofoxifene to human plasma proteins; conditions: human, plasma
# human plasma proteins [3] = assay: as above; conditions: binding of the SERM itself, human plasma
# [4] = Binding of propranolol to human plasma proteins in the absence and presence of droloxifene or lasofoxifene (equilibrium dialysis, HPLC-MS); conditions: human, plasma
# Description: as §1
SMILES,effect on the protein binding of propranolol in human plasma (human plasma proteins [1]),fraction unbound [2],bound to human plasma proteins (human plasma proteins [3]),fraction unbound [4]
CC/C(=C(/c1ccc(OCCN(C)C)cc1)c1cccc(O)c1)c1ccccc1 [droloxifene],will not be altered,3e-05,99.997%,
"Oc1ccc2c(c1)CC[C@H](c1ccccc1)[C@@H]2c1ccc(OCCN2CCCC2)cc1 [lasofoxifene, (-) cis-6-phenyl-5[4-(2-pyrrolitin-1-yl-ehtoxy)-phenyl]-5,6,7,8-tetrahydronaphthalene-2-ol]",will not be altered,,99.997% and 99.94%,
"CC(C)NCC(O)COc1cccc2ccccc12 (stereo not drawn) [propranolol, reference compound]",,,,0.24
